Results published in ChEMBL document CHEMBL3991601, “The target landscape of clinical kinase drugs” (Science, 2017).
Calls of active or inactive are those of the source. Cut-off read from the data, not from the text of the source, for most assays here: actives have a measured Kd and inactives only a lower limit.

Tests used:
[1] = biological target: RAC-alpha serine/threonine-protein kinase (Homo sapiens, UniProt P31749)
[2] = biological target: Bone morphogenetic protein receptor type-1A (Homo sapiens, UniProt P36894)
[3] = biological target: Cyclin-dependent kinase 13 (Homo sapiens, UniProt Q14004)
[4] = biological target: Cyclin-dependent kinase 6 (Homo sapiens, UniProt Q00534)
[5] = biological target: T1, Interleukin-1 receptor-associated kinase 3 (Homo sapiens, UniProt Q9Y616)
T1 sequence (Q9Y616 whole entry): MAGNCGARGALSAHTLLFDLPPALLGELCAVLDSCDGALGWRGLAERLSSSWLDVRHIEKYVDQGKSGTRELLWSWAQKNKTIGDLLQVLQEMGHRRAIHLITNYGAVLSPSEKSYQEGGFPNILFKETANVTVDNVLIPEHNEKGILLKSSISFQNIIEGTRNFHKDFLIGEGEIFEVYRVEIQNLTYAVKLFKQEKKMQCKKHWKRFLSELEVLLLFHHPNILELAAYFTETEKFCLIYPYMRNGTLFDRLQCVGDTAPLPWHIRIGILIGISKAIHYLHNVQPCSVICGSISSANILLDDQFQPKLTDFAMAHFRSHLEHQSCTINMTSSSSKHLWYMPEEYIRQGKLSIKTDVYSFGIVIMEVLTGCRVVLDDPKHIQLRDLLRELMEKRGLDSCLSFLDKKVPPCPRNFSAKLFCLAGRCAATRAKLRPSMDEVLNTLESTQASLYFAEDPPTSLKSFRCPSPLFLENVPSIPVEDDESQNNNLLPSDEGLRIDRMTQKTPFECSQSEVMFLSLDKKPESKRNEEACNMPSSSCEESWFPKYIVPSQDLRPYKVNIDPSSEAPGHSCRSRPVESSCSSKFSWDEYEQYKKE

[6] = biological target: Tyrosine-protein kinase Lck (Homo sapiens, UniProt P06239)
[7] = biological target: T2, Mitogen-activated protein kinase kinase kinase kinase 2 (Homo sapiens, UniProt Q12851)
T2 sequence (Q12851 whole entry): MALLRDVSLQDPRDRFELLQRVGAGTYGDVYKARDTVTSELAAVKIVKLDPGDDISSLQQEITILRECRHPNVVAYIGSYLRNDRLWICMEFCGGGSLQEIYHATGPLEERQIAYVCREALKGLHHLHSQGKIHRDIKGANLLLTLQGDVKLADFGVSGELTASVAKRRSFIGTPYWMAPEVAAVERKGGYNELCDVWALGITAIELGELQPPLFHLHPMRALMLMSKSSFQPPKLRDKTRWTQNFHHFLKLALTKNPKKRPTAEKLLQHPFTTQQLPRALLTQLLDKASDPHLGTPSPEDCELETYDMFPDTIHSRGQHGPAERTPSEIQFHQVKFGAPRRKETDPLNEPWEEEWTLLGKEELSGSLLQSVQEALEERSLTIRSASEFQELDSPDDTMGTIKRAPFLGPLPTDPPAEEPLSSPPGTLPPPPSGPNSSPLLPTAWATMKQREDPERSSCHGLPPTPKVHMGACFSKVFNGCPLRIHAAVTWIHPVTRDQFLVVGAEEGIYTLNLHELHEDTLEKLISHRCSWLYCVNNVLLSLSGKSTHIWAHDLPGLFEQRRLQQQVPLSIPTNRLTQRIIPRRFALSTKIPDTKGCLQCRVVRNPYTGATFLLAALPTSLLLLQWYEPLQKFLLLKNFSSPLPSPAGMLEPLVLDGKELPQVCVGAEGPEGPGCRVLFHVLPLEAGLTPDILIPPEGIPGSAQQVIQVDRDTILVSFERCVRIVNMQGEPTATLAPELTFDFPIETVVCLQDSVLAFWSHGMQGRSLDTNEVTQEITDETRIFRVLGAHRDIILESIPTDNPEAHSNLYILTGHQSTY

[8] = biological target: MAP kinase-activated protein kinase 2 (Homo sapiens, UniProt P49137)
[9] = biological target: Hepatocyte growth factor receptor (Homo sapiens, UniProt P08581)
[10] = biological target: Membrane-associated progesterone receptor component 1 (Homo sapiens, UniProt O00264)
[11] = biological target: T3, ATP-dependent RNA helicase DDX1 (Homo sapiens, UniProt Q92499)
T3 sequence (Q92499 whole entry): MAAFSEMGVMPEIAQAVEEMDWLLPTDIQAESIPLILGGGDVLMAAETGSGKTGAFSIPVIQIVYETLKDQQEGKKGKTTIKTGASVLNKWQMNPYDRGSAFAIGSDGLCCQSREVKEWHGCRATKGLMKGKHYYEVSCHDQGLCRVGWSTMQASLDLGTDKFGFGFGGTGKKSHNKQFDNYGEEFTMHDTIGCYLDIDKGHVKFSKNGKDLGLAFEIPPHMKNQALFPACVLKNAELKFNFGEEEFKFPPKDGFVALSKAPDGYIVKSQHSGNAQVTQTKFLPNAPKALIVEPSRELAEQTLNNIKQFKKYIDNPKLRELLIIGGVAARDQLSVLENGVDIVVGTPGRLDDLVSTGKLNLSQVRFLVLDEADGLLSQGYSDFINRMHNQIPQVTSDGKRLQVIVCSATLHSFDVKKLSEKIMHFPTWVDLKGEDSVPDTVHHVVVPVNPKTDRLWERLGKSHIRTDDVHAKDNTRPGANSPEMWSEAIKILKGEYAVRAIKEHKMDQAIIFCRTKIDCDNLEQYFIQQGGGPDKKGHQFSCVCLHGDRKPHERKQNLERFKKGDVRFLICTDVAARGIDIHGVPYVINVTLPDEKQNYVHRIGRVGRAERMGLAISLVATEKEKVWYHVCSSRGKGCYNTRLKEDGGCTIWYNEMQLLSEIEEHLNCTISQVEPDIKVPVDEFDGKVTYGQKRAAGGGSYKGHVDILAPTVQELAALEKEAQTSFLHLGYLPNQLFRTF
Note: in the data inactive means no Kd found up to 30 µM.

MAP kinase-activated protein kinase 2, sequence (P49137 whole entry): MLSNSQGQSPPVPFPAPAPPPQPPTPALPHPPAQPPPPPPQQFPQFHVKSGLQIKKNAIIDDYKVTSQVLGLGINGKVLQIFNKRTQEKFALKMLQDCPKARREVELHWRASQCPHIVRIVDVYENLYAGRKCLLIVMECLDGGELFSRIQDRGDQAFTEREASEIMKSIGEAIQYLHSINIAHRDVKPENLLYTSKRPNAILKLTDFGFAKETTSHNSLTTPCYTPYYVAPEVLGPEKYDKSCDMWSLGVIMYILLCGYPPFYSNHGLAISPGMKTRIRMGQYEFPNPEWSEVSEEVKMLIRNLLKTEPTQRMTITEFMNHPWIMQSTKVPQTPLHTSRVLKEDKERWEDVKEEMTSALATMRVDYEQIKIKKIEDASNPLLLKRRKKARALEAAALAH
Membrane-associated progesterone receptor component 1, sequence (O00264 whole entry): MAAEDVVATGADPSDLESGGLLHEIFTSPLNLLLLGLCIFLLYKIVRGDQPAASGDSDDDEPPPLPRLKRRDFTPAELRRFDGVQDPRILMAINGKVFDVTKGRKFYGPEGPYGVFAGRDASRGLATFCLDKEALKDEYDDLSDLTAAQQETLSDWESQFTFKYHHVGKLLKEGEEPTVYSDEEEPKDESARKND
Hepatocyte growth factor receptor, sequence (P08581 whole entry): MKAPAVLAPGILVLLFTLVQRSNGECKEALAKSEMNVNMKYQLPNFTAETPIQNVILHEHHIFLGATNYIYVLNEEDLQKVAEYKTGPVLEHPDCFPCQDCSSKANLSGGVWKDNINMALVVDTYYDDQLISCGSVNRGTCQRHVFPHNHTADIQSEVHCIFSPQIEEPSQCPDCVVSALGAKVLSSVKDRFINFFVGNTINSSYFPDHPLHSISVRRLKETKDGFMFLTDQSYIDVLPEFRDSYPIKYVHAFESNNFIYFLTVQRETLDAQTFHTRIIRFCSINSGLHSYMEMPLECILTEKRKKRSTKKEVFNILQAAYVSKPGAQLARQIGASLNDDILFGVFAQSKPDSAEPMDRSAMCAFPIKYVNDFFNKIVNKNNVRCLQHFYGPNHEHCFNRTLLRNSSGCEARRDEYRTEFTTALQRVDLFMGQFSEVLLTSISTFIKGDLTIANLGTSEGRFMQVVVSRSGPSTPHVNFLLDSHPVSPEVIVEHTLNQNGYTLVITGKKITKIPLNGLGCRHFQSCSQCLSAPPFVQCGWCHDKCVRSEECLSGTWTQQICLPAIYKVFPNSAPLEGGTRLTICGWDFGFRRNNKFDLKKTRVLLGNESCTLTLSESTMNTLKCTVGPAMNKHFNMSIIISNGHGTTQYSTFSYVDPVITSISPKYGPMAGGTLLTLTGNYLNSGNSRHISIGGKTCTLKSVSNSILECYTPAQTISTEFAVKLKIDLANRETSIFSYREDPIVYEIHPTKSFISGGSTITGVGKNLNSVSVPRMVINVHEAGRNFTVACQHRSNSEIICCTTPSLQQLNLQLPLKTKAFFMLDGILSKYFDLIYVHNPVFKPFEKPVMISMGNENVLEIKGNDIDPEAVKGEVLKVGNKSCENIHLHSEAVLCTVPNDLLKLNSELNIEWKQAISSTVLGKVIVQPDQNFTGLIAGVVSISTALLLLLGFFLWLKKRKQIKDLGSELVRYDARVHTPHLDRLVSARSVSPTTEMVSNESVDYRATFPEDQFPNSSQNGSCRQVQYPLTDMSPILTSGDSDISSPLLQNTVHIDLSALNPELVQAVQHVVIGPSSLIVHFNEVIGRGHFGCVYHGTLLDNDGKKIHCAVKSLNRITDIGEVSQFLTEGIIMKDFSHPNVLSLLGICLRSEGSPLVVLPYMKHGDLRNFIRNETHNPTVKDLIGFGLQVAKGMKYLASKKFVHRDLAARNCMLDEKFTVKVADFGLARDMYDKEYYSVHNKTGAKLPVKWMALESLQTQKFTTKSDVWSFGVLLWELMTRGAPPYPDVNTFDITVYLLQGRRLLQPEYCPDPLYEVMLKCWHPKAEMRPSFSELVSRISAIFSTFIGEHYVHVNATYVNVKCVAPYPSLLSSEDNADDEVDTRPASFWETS
Bone morphogenetic protein receptor type-1A, sequence (P36894 whole entry): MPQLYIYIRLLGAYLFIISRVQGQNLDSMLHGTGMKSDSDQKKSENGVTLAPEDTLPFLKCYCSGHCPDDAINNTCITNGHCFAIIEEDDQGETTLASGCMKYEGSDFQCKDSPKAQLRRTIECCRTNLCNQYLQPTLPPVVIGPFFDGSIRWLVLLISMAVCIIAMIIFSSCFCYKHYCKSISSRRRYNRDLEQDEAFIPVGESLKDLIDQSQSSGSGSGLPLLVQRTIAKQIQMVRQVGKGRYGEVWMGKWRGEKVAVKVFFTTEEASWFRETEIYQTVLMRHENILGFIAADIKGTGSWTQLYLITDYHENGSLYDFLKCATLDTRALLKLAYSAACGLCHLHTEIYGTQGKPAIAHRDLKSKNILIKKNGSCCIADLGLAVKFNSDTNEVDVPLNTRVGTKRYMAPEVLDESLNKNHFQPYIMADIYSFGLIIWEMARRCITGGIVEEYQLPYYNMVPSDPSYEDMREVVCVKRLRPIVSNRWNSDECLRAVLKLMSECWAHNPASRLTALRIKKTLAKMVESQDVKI
Tyrosine-protein kinase Lck, sequence (P06239 whole entry): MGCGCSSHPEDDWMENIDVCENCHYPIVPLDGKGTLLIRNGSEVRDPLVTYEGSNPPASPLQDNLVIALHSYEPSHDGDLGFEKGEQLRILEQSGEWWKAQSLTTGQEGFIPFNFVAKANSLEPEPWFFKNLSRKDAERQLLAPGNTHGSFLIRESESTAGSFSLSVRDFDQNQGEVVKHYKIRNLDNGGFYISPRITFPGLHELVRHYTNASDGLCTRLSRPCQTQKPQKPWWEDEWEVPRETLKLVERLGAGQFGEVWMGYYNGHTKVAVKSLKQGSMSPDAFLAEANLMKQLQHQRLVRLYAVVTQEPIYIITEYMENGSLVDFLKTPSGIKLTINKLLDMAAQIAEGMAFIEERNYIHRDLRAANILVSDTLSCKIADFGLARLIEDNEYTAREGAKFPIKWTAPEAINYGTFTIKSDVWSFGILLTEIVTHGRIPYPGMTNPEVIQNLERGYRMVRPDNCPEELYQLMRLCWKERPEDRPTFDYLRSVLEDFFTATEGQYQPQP
Cyclin-dependent kinase 6, sequence (Q00534 whole entry): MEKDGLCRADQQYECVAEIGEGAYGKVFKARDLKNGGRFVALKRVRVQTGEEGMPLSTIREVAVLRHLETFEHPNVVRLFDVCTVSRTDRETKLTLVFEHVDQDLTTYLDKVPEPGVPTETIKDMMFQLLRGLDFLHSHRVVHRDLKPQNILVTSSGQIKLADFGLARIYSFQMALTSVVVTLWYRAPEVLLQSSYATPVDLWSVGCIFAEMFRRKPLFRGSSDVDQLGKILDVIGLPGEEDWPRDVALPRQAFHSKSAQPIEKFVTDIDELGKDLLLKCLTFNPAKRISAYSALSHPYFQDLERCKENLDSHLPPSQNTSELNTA
RAC-alpha serine/threonine-protein kinase, sequence (P31749 whole entry): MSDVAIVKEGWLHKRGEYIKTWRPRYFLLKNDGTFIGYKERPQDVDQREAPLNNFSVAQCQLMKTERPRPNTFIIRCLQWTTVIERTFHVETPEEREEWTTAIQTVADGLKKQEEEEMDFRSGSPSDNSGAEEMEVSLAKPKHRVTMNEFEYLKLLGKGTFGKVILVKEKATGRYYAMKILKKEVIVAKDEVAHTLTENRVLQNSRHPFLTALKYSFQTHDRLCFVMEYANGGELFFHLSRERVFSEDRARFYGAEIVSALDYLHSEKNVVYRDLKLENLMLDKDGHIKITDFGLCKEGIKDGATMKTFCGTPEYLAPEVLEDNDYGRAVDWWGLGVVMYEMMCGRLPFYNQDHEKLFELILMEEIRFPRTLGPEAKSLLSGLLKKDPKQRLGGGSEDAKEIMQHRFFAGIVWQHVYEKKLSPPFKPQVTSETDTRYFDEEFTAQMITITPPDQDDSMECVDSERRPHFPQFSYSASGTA

Row | SMILES | Kd [1] | Kd [2] | Kd [3] | Kd [4] | Kd [5] | Kd [6] | Kd [7] | Kd [8] | Kd [9] | Kd [10] | Kd [11]
1 | C[C@@H](Oc1cc(C(=O)Nc2ccc(C(=O)N3CCN(C)CC3)cc2)nnc1N)c1c(Cl)ccc(F)c1Cl | > 30 µM (inactive) | > 30 µM (inactive) | > 30 µM (inactive) | > 30 µM (inactive) | > 30 µM (inactive) | > 30 µM (inactive) | 0.122 µM (active) | > 30 µM (inactive) | 0.032 µM | > 30 µM (inactive) | 
2 | CCNC(=O)C#Cc1ccc2c(c1)NC(=O)/C2=C(\Nc1ccc(CN(C)C)cc1)c1ccccc1 | > 30 µM (inactive) | > 30 µM (inactive) | > 30 µM (inactive) | 2.97 µM (active) | > 30 µM (inactive) | 0.115 µM (active) | > 30 µM (inactive) | > 30 µM (inactive) | > 30 µM (inactive) | > 30 µM (inactive) | > 30 µM (inactive)
3 | COCc1c(-c2ccc(NC(=O)Nc3cc(C(F)(F)F)ccc3F)c(F)c2)c2c(N)ncnn2c1CN1CCOCC1 | > 30 µM (inactive) | > 30 µM (inactive) | > 30 µM (inactive) | > 30 µM (inactive) | > 30 µM (inactive) | > 30 µM (inactive) | 4.16 µM (active) | > 30 µM (inactive) | > 30 µM (inactive) | > 30 µM (inactive) | > 30 µM (inactive)
4 | COc1cc([C@@H]2c3cc4c(cc3[C@H](O)[C@H]3COC(=O)[C@@H]23)OCO4)cc(OC)c1OC [AXL-1717] | > 30 µM (inactive) | > 30 µM (inactive) |  | > 30 µM (inactive) | > 30 µM (inactive) | > 30 µM (inactive) | > 30 µM (inactive) | > 30 µM (inactive) | > 30 µM (inactive) | > 30 µM (inactive) | > 30 µM (inactive)
5 | COc1cc2ncnc(Oc3cccc(NC(=O)Nc4cc(C(C)(C)C(F)(F)F)on4)c3)c2cc1OC [CEP-32496] | > 30 µM (inactive) | > 30 µM (inactive) | > 30 µM (inactive) | > 30 µM (inactive) | > 30 µM (inactive) |  | 2.82 µM (active) | 0.49 µM (active) | > 30 µM (inactive) | > 30 µM (inactive) | > 30 µM (inactive)
6 | Cc1cc(Nc2ncc(Cl)c(Nc3ccccc3S(=O)(=O)C(C)C)n2)c(OC(C)C)cc1C1CCNCC1 [CERITINIB] | > 30 µM (inactive) | > 30 µM (inactive) | > 30 µM (inactive) | > 30 µM (inactive) | > 30 µM (inactive) | > 30 µM (inactive) | > 30 µM (inactive) | > 30 µM (inactive) | > 30 µM (inactive) |  | > 30 µM (inactive)
7 | COc1c(OCCCN2CCOCC2)ccc2c1N=C(NC(=O)c1cnc(N)nc1)N1CCN=C21 [COPANLISIB] | > 30 µM (inactive) | > 30 µM (inactive) | > 30 µM (inactive) | > 30 µM (inactive) | > 30 µM (inactive) | > 30 µM (inactive) | > 30 µM (inactive) | > 30 µM (inactive) | > 30 µM (inactive) |  | > 30 µM (inactive)
8 | CCn1cc(-c2ccnc3[nH]c(-c4cccc(CN(C)C)c4)cc23)c(-c2ccc(NC(=O)N(C)C)cc2)n1 [GSK-1070916] | > 30 µM (inactive) | > 30 µM (inactive) |  | > 30 µM (inactive) | > 30 µM (inactive) | > 30 µM (inactive) | > 30 µM (inactive) |  | > 30 µM (inactive) |  | > 30 µM (inactive)
9 | COc1ccc(S(=O)(=O)N(C(C)=O)c2ccccc2/C=C/c2cc[n+]([O-])cc2)cc1 [HMN-214] | > 30 µM (inactive) | > 30 µM (inactive) | > 30 µM (inactive) | > 30 µM (inactive) | > 30 µM (inactive) | > 30 µM (inactive) | > 30 µM (inactive) | > 30 µM (inactive) | 1.39 µM |  | > 30 µM (inactive)
10 | NC1(c2ccc(-c3nc4ccn5c(=O)[nH]nc5c4cc3-c3ccccc3)cc2)CCC1 [MK-2206] |  | > 30 µM (inactive) | > 30 µM (inactive) | > 30 µM (inactive) | > 30 µM (inactive) | > 30 µM (inactive) | > 30 µM (inactive) | > 30 µM (inactive) | > 30 µM (inactive) | > 30 µM (inactive) | > 30 µM (inactive)
11 | N#CC1(c2ccc(NC(=O)c3cccnc3NCc3ccncc3)cc2)CCCC1 [RIVOCERANIB] | > 30 µM (inactive) | > 30 µM (inactive) | > 30 µM (inactive) | > 30 µM (inactive) | > 30 µM (inactive) | > 30 µM (inactive) | > 30 µM (inactive) | > 30 µM (inactive) | > 30 µM (inactive) |  | > 30 µM (inactive)
12 | CO[C@H]1C[C@@H]2CC[C@@H](C)[C@@](O)(O2)C(=O)C(=O)N2CCCC[C@H]2C(=O)O[C@H]([C@H](C)C[C@@H]2CC[C@@H](O)[C@H](OC)C2)CC(=O)[C@H](C)/C=C(\C)[C@@H](O)[C@@H](OC)C(=O)[C@H](C)C[C@H](C)/C=C/C=C/C=C/1C [SIROLIMUS] | > 30 µM (inactive) | > 30 µM (inactive) | > 30 µM (inactive) | > 30 µM (inactive) | > 30 µM (inactive) | > 30 µM (inactive) | > 30 µM (inactive) | > 30 µM (inactive) | > 30 µM (inactive) |  | > 30 µM (inactive)
13 | Cn1ncc(Cl)c1-c1cc(C(=O)N[C@H](CN)Cc2ccc(F)c(F)c2)oc1Cl [UPROSERTIB] |  | > 30 µM (inactive) | > 30 µM (inactive) | > 30 µM (inactive) | > 30 µM (inactive) | > 30 µM (inactive) | > 30 µM (inactive) | > 30 µM (inactive) | > 30 µM (inactive) | > 30 µM (inactive) | > 30 µM (inactive)
14 | CC(C)c1cc(CNc2nc(Nc3cc(C4CC4)[nH]n3)cc(N3CCN(C)CC3)n2)on1 [XL-228] | > 30 µM (inactive) |  | > 30 µM (inactive) | > 30 µM (inactive) | 0.08 µM (active) | 0.166 µM (active) | 0.352 µM (active) | > 30 µM (inactive) | > 30 µM (inactive) |  | > 30 µM (inactive)
15 | C[C@@H](N)c1ccc(C(=O)Nc2ccnc3[nH]ccc23)cc1 [Y-39983] | > 30 µM (inactive) | 0.34 µM | > 30 µM (inactive) | > 30 µM (inactive) | > 30 µM (inactive) | > 30 µM (inactive) | > 30 µM (inactive) | > 30 µM (inactive) | > 30 µM (inactive) |  | > 30 µM (inactive)
